pIC50, pKd, pKi: −log10 of the molar value.
Columns and labels:
[1] = Inhibition of Influenza B virus (B/Victoria/504/2000) Neuraminidase
Acetylcholinesterase [2] = molecular target: T1, Acetylcholinesterase (Mus musculus, UniProt P21836); assay: Binding affinity to mouse ACHE by fluorescence method
T1 sequence (P21836 whole entry): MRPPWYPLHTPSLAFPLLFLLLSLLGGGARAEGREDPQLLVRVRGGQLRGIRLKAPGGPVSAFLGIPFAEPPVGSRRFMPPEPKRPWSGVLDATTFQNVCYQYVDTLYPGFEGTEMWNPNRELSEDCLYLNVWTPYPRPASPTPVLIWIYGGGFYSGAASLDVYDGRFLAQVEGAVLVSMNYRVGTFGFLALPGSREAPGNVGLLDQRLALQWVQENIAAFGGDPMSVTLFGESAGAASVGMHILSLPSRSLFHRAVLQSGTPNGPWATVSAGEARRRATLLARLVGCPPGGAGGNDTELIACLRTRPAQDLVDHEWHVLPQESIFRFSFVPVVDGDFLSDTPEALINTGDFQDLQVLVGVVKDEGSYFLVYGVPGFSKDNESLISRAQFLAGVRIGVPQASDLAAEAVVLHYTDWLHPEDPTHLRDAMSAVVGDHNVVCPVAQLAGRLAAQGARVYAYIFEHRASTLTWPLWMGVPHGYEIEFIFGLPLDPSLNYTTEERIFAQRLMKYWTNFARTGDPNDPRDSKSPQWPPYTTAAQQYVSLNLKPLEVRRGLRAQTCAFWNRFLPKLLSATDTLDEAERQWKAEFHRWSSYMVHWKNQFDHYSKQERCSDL

Acetylcholinesterase [3] = molecular target: T2, Acetylcholinesterase (Rattus norvegicus, UniProt P37136)
T2 sequence (P37136 whole entry): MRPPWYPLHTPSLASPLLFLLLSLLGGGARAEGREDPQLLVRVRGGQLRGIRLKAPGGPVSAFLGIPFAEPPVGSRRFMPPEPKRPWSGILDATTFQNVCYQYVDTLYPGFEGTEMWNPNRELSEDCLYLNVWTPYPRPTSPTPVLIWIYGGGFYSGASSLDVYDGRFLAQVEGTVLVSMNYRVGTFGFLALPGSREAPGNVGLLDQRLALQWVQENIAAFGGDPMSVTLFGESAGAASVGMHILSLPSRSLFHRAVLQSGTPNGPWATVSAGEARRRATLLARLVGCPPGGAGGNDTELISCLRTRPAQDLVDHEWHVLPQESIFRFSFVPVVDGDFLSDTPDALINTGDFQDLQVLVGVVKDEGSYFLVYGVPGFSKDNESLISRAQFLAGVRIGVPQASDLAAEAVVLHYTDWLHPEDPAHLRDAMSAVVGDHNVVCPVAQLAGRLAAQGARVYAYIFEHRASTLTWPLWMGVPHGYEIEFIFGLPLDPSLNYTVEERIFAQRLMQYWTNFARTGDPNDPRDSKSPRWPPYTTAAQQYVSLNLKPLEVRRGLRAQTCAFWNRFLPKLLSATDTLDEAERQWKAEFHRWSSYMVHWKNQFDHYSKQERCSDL
Description: Inhibition of rat brain Acetylcholinesterase using acetylthiocholine as substrate in presence of BChE inhibitor ethopropazine

Caspase-3 = molecular target: T3, Caspase-3 (Homo sapiens, UniProt P42574); assay: Inhibition of caspase-3 (unknown origin) using Ac-DEVD-AMCA as substrate incubated for 5 mins by Dixon plot analysis
T3 sequence (P42574 whole entry): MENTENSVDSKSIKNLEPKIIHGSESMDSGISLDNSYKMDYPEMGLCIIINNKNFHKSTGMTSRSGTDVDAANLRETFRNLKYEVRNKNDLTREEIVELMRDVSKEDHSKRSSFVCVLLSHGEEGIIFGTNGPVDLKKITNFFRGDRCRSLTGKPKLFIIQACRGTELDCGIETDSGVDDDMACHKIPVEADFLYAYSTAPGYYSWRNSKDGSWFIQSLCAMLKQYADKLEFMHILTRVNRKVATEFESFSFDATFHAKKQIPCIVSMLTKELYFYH

CCC(CC)N[C@@H]1C=C(C(=O)O)C[C@H](N)[C@H]1NC(C)=O
pKi [1]: 7.07

C#CCCCCCC[n+]1c(-c2ccccc2)c2cc(N)ccc2c2ccc(N)cc21
pKd (Acetylcholinesterase [2]): 2.00

c1ccc2c(NCCCCCCNc3c4c(nc5ccccc35)CCCC4)c3c(nc2c1)CCCC3
pIC50 (Acetylcholinesterase [3]): 9.40

CN(C)c1ccc(-c2nc3cc(N)ccc3o2)cc1
pKi (Caspase-3): 3.92
